Measurements taken from ChEMBL document CHEMBL1201862, “PubChem BioAssay data set” (2004).
The source made the active and inactive calls.

Assays:
[1] = biological target: T1, Heat shock factor protein 1 (Mus musculus, UniProt P38532); experiment: enhancement of HSF1-driven luciferase signal – cell-based, NIH3T3, luminescence, dose retest, confirmation (AID 435004); type: functional;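 also: stress induced by proteasome inhibitor MG132 added 30 min after compound; luciferase reporter driven by HSF1 response element in NIH3T3 cells; actives raise luminescence as potentiators of the MG132 stress response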
T1 sequence (P38532 whole entry): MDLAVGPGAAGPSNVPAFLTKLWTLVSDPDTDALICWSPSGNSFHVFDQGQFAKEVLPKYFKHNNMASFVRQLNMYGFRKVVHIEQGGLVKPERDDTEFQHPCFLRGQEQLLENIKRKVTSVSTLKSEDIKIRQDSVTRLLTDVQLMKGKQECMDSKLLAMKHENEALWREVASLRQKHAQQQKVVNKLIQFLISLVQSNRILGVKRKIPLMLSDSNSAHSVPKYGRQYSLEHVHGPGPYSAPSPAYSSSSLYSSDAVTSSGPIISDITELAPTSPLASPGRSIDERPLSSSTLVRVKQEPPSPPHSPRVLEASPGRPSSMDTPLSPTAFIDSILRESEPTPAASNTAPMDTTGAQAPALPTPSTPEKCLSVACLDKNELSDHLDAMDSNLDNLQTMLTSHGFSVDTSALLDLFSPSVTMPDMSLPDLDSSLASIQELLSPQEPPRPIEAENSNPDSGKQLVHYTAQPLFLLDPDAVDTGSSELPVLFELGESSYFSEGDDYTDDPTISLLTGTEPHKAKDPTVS

[2] = biological target: T2, Replicative DNA helicase DnaB (Mycobacterium tuberculosis, UniProt P9WMR3); experiment: DnaB intein splicing inhibitors, dose response, biochemical, cell-free fluorescence (AID 449749); type: functional
T2 sequence (P9WMR3 whole entry): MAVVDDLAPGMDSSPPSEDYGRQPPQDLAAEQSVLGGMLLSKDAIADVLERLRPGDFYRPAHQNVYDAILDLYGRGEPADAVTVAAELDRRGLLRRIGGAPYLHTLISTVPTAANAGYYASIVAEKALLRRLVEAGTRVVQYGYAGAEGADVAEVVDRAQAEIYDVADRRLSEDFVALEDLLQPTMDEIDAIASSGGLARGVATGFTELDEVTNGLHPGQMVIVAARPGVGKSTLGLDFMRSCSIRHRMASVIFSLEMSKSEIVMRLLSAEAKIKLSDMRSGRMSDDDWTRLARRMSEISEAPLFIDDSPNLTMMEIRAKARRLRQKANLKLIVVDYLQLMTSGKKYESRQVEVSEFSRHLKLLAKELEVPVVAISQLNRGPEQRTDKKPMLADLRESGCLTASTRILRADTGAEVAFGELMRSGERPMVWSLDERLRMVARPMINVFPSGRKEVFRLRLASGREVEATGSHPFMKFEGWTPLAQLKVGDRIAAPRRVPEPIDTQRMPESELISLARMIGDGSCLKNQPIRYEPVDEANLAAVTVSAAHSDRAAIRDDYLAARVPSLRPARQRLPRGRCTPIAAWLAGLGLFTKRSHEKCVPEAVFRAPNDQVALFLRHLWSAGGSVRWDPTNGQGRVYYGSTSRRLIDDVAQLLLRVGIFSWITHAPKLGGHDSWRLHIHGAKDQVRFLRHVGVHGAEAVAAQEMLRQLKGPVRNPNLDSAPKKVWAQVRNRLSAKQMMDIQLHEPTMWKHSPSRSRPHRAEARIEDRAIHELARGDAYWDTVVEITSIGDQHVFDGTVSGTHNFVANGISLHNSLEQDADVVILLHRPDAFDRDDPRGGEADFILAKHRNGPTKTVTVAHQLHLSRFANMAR

[3] = biological target: Luciferin 4-monooxygenase (Photinus pyralis, UniProt P08659); experiment: inhibition of purified Photinus pyralis luciferase – biochemical, luminescence, dose response (AID 1891)
[4] = Luminescence Cell-Based Dose Confirmation HTS to Identify Inhibitors of Platelet Dense Granule Release. [Related pubchem assays: 1663 (Primary HTS), 1678 (Summary of Project)]; type: functional
Protein RecA = biological target: T3, Protein RecA (Mycobacterium tuberculosis, UniProt P9WHJ3); experiment: Fluorescence Cell-Free Homogeneous Dose Retest to Identify Inhibitors of RecA-Intein Splicing Activity. [Related pubchem assays (depositor defined):AID2097, AID2223, AID489010, AID492950]; type: functional
T3 sequence (P9WHJ3 whole entry): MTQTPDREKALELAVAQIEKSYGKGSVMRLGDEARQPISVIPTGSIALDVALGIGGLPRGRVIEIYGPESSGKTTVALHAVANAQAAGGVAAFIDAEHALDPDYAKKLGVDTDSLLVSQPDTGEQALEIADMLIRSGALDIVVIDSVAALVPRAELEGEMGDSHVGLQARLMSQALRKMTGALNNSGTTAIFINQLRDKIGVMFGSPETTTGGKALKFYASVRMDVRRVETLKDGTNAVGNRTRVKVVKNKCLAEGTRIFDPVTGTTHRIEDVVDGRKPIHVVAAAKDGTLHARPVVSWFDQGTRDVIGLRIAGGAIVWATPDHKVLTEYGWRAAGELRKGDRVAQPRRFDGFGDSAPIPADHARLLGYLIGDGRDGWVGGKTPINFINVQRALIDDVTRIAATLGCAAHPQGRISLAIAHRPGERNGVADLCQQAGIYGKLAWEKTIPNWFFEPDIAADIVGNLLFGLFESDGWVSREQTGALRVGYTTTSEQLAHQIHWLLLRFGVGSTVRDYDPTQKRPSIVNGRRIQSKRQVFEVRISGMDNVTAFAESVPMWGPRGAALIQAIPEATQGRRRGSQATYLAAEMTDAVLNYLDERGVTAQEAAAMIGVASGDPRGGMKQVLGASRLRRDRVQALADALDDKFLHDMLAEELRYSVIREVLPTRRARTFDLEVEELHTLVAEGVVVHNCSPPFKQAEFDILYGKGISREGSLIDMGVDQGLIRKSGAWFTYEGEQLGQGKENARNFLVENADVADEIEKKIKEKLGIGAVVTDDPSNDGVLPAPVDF

[5] = Trypanosoma cruzi growth suppression in host cells – NIH3T3 host cells, beta-gal luminescence, confirmation (AID 2044); type: functional, cell-based;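 also: intracellular parasites grown in NIH/3T3 mouse fibroblasts as host cells; luminescent beta-galactosidase reporter signal from transgenic T. cruzi replicating inside host cells; inhibitors lower the luminescence signal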
[6] = NIH3T3 cell viability loss – ATP luminescence, mouse fibroblasts, counter-screen, dose response (AID 2010); type: functional, cell-based;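 also: cells exposed to compound for about 90 hours before reading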
[7] = biological target: T4, Ubiquitin-conjugating enzyme E2 N (Homo sapiens, UniProt P61088); type: functional;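 also: Dose-response confirmation in a TR-FRET assay detecting UBC13-driven polyubiquitin chain formation, inhibition measured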
T4 sequence (P61088 whole entry): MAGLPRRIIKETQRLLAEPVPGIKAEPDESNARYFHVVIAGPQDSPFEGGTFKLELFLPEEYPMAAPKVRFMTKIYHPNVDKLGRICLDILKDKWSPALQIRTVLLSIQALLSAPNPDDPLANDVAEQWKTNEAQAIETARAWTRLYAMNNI

Protein skinhead-1 = biological target: T5, Protein skinhead-1 (Caenorhabditis elegans, UniProt P34707); type: functional
T5 sequence (P34707 whole entry): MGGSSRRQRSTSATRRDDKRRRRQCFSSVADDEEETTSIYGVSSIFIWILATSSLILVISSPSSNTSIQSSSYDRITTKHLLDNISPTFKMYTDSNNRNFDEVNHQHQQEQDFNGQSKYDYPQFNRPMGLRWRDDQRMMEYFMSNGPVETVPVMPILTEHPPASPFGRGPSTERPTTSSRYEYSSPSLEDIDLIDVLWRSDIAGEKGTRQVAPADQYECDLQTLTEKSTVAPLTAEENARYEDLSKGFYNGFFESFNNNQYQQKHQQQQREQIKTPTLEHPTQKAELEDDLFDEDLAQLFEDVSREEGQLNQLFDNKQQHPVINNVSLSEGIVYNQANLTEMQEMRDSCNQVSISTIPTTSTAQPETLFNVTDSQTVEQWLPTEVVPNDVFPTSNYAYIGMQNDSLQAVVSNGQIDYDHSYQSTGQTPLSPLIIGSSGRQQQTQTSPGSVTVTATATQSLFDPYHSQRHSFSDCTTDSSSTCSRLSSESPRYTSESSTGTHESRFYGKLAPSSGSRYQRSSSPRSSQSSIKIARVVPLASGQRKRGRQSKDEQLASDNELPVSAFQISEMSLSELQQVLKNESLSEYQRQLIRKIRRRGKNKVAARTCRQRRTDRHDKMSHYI

INS1 = experiment: INS-1E survival protection against cytokine death – cell-based, luminescence, retest, dose response (AID 449756); type: functional; conditions: Rattus norvegicus;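 also: cell death triggered by IL-1 beta plus TNF-alpha plus IFN-gamma mixture; protective hits raise ATP signal compared with cytokine alone wells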
[8] = viability of PTEN-deleted HCT116 cells – cell-based, HCT116 PTEN knockout, dose response (AID 1047); type: functional;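 also: HCT116 colon tumor cells with PTEN knocked out; cells exposed to compound for 60 hours before readout; potency for loss of cell viability measured by luminescence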
[9] = biological target: T6, Rac GTPase-activating protein 1 (Homo sapiens, UniProt Q9H0H5); experiment: blockers of MgcRacGAP-driven Rac1 GTP hydrolysis – biochemical, ADP Hunter fluorescence, primary and confirmatory, confirmation (AID 624330); type: functional
T6 sequence (Q9H0H5 whole entry): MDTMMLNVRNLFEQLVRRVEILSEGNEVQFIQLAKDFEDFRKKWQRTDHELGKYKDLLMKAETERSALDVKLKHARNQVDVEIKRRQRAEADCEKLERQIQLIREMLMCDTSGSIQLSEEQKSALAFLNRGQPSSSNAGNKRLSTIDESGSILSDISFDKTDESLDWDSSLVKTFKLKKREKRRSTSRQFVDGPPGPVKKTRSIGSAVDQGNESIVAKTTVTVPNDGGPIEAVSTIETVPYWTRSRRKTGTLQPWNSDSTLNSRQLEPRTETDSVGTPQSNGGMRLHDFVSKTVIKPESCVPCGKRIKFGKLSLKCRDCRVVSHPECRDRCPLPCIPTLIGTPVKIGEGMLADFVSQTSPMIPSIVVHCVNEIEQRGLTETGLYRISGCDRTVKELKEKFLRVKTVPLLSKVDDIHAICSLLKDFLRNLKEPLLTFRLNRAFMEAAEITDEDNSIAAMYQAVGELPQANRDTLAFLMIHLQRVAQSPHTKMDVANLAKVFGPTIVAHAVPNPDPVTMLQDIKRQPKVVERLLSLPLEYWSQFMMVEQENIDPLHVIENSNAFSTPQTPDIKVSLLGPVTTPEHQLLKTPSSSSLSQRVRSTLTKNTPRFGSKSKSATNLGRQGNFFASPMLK

Paired box protein Pax-8 = Paired box protein Pax-8 (Homo sapiens, UniProt Q06710); experiment: PAX8 transcriptional activity inhibition in RMG-I – RMG-I cells, luciferase, cherry-pick, dose response (AID 687027); type: functional, cell-based;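 also: luciferase reporter driven by Pax8 target thyroperoxidase promoter measured by SteadyGlo luminescence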
Chain of Paired box protein Pax-8 (Q06710 whole entry): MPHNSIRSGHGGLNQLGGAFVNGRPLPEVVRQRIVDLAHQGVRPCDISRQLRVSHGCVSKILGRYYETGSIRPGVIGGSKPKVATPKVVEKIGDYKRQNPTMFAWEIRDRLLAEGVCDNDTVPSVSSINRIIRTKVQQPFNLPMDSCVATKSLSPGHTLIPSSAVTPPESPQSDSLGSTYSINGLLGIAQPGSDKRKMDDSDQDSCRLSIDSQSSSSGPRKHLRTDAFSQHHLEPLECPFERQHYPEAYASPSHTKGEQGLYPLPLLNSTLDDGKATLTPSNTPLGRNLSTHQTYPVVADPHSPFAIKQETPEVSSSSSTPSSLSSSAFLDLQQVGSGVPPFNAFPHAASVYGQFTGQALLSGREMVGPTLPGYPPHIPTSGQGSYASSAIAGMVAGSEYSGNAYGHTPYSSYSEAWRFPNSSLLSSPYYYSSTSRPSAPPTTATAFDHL

Chain of Luciferin 4-monooxygenase (P08659 whole entry): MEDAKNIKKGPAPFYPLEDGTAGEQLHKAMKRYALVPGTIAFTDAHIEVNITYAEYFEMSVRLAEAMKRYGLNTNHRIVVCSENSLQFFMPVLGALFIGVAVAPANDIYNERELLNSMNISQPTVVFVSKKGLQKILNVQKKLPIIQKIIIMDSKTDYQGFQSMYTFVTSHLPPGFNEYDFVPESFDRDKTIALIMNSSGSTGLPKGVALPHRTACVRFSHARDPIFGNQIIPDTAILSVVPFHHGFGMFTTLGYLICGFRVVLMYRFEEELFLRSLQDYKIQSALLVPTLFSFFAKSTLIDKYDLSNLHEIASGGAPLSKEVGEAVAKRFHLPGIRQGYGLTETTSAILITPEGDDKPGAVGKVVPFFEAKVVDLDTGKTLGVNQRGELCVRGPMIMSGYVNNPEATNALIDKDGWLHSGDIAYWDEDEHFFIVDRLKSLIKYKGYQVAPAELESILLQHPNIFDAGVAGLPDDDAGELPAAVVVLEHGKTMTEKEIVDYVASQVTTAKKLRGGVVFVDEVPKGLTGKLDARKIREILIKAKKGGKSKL

For `CCN(C(=O)COC(=O)c1c2c(nc3ccccc13)/C(=C/c1ccccc1)CC(C)C2)C1CCS(=O)(=O)C1` (stereo unspecified), the EC50 [1] was 14.3 µM (active).
For `CCCc1noc2c1C(c1ccoc1)C(C#N)=C(N)N2` (stereo unspecified), the AC50 [2] was 157 µM (active), the EC50 [3] was > 112 µM (not active) and the EC50 [4] was > 112 µM (not active). The EC50 (Protein RecA) was 1.06 µM (active).
For `CCN(CC)CCNC(=O)c1cc2c(s1)-c1ccccc1SC2`, the EC50 [5] was 2.27 µM (active), the EC50 [6] was 7.38 µM (active) and the IC50 [7] was > 20 µM (inactive).
For `COCCn1c(CCC(=O)O)nc2c1c(=O)[nH]c(=O)n2CC(C)C`, the IC50 (Protein skinhead-1) was > 100 µM (inactive).
With `CCOC(=O)C1=C(c2ccccc2)O/C(=C(/C(=O)OC)C(F)(F)F)S1` the IC50 [7] was > 20 µM (inactive).
For `COc1cc2[nH]c(=S)n(CCN3CCCCC3C)c(=O)c2cc1OC` (stereo unspecified), the IC50 (Protein skinhead-1) was > 100 µM (inactive).
With `CCOc1ccc(CCNC(=O)c2oc3c(c2C)-c2n[nH]cc2CC3)cc1OCC` the EC50 [3] was > 112 µM (not active) and the EC50 [4] was > 112 µM (not active).
For `CSc1nc(S(=O)(=O)c2ccc(C)cc2)c(Cl)s1`, the EC50 [1] was > 260 µM (inactive).
For `Cc1c(C2=CCN(S(=O)(=O)c3ccc(Cl)cc3)CC2)c2ccccc2n1C`, the IC50 (Protein skinhead-1) was > 100 µM (inactive).
In the case of `CC(C)CCCCCCN=C(S)Nc1ccc(S(=O)(=O)N2CCOCC2)cc1`, the AC50 (INS1) was 7.7 µM (active) and the EC50 [8] was 77 µM (active).
In the case of `COc1ccc(NS(=O)(=O)c2cccc(-c3nnc(-c4ccccc4)o3)c2)cc1`, the IC50 (Protein skinhead-1) was > 100 µM (inactive).
For `COc1ccc(C(O)CNc2ccc(C)cc2)cc1` (stereo unspecified), the IC50 (Protein skinhead-1) was > 100 µM (inactive).
For `CCCc1cc(C(=O)Nc2ccc(Cl)cn2)cs1`, the IC50 (Protein skinhead-1) was > 100 µM (inactive).
In the case of `CCC1CCCN1Cn1cnc2c3cc(Cl)ccc3nc-2c1O` (stereo unspecified), the EC50 [3] was > 112 µM (not active) and the EC50 [4] was 48.3 µM (active).
For `COc1ccc(CCNC(=O)Cn2c(=O)n(-c3ccc(C)c(F)c3)c(=O)c3sccc32)cc1OC`, the IC50 [7] was > 20 µM (inactive).
With `CCOC(=O)C1CCN(C(=O)c2ccc3c(c2)S(=O)(=O)c2ccccc2C3=O)CC1` the IC50 (Protein skinhead-1) was > 100 µM (inactive).
With `COc1ccc(C(=O)Nc2ccc3oc(-c4cccc(F)c4)nc3c2)cc1OC` the IC50 [7] was > 20 µM (inactive).
In the case of `O=C(CN(c1cccc([N+](=O)[O-])c1)S(=O)(=O)c1ccccc1)NCc1ccccc1`, the EC50 [3] was > 112 µM (not active) and the EC50 [4] was 46.7 µM (active).
In the case of `COCCCN(C(=O)Cc1ccc(Cl)c(Cl)c1)c1c(N)n(Cc2ccccc2)c(=O)[nH]c1=O`, the EC50 [3] was > 112 µM (not active) and the EC50 [4] was > 112 µM (not active).
With `CCN(CC)CCNC(=O)c1cc2c(=O)n(CC)c3ccccc3c2s1` the IC50 [7] was > 20 µM (inactive).
For `CCC[C@@H](CN1CCC[C@H]1CN1C(N)=NC[C@@H]1Cc1ccccc1)N1C[C@@H](Cc2ccccc2)N(CCc2ccc(Cl)c(Cl)c2)C1=N`, the IC50 [7] was > 20 µM (inactive).
For `Nn1c(=S)[nH]c2sc3c(c2c1=O)CCCC3`, the IC50 (Protein skinhead-1) was > 100 µM (inactive) and the IC50 [9] was 74.3 µM (active).
With `O=C1CC(NNC(=O)c2ccc(Br)cc2)C(=O)N1` (stereo unspecified) the IC50 (Protein skinhead-1) was > 100 µM (inactive).
For `Cc1nonc1C(=O)N/N=C/c1cccc(O)c1`, the EC50 [3] was 13.5 µM (active) and the EC50 [4] was 4.56 µM (active).
With `O=C(Nc1ccccc1C(=O)N/N=C/c1ccco1)c1ccc(F)cc1` the EC50 [3] was 0.295 µM (active) and the EC50 [4] was 10.4 µM (active).
For `C[C@H]1CCCCO[C@H](CN(C)C(=O)Nc2ccc(C(F)(F)F)cc2)[C@@H](C)CN([C@@H](C)CO)C(=O)c2cc(NC(=O)c3ccncc3)ccc2O1`, the AC50 (Paired box protein Pax-8) was 17.1 µM (active).
With `CC/C(=N\NC(=O)Nc1ccccc1)c1ccccc1` the EC50 [3] was > 112 µM (not active) and the EC50 [4] was > 112 µM (not active).
